Article PMC4508061, “Selectivity Profiling and Biological Activity of Novel β-Carbolines as Potent and Selective DYRK1 Kinase Inhibitors” (PLoS ONE, 2015)

What was measured:
Test in all cases: ProQinase radiometric kinase panel
Conditions in all cases: mean of 2 exp.
PRKD2 = PRKD2 (Homo sapiens, UniProt Q9BZL6)
JNK3 = JNK3 (Homo sapiens, UniProt P53779)
Procedure: (§1) Gini coefficients were calculated and the Lorenz curve (Fig 3B) was plotted by applying the Microsoft Excel spreadsheet provided by Graczyk [44].
radiometric protein kinase assays.

MEKK3 = MEKK3 (Homo sapiens, UniProt Q99759)
PRK2 = PRK2 (Homo sapiens, UniProt Q16513)
MATK = MATK (Homo sapiens, UniProt P42679)
RPS6KA3 = RPS6KA3 (Homo sapiens, UniProt P51812)
PDGFR-alpha = PDGFR-alpha (Homo sapiens, UniProt P16234)
CAMK4 = CAMK4 (Homo sapiens, UniProt Q16566)
TRK-B = TRK-B (Homo sapiens, UniProt Q16620)
p38-gamma = p38-gamma (Homo sapiens, UniProt P53778)
p38-beta = p38-beta (Homo sapiens, UniProt Q15759)
INS-R = INS-R (Homo sapiens, UniProt P06213)
SRPK2 = SRPK2 (Homo sapiens, UniProt P78362)
NEK1 = NEK1 (Homo sapiens, UniProt Q96PY6)
CDC42BPB = CDC42BPB (Homo sapiens, UniProt Q9Y5S2)
MAP4K2 = MAP4K2 (Homo sapiens, UniProt Q12851)
KIT = KIT (Homo sapiens, UniProt P10721)
Procedure: as §1
radiometric protein kinase assays.

LRRK2 = LRRK2 (Homo sapiens, UniProt Q5S007)
MUSK = MUSK (Homo sapiens, UniProt O15146)
EPHA5 = EPHA5 (Homo sapiens, UniProt P54756)
CDC42BPA = CDC42BPA (Homo sapiens, UniProt Q5VT25)
JAK3 = JAK3 (Homo sapiens, UniProt P52333)
p38-delta = p38-delta (Homo sapiens, UniProt O15264)
NLK = NLK (Homo sapiens, UniProt Q9UBE8)
NEK2 = NEK2 (Homo sapiens, UniProt P51955)
TEC = TEC (Homo sapiens, UniProt P42680)
IRAK4 = IRAK4 (Homo sapiens, UniProt Q9NWZ3)
AKT2 = AKT2 (Homo sapiens, UniProt P31751)
CK1-gamma1 = CK1-gamma1 (Homo sapiens, UniProt Q9HCP0)
DMPK = DMPK (Homo sapiens, UniProt Q09013)
ROCK1 = ROCK1 (Homo sapiens, UniProt Q13464)
SRC = SRC (Homo sapiens, UniProt P12931)
CDK3/CycE1 = CDK3/CycE1 (Homo sapiens, UniProt Q00526)
MERTK = MERTK (Homo sapiens, UniProt Q12866)
LYN = LYN (Homo sapiens, UniProt P07948)
JAK1 = JAK1 (Homo sapiens, UniProt P23458)
LTK = LTK (Homo sapiens, UniProt P29376)
WEE1 = WEE1 (Homo sapiens, UniProt P30291)
TIE2 = TIE2 (Homo sapiens, UniProt Q02763)
EPHA4 = EPHA4 (Homo sapiens, UniProt P54764)

Chain of ROCK1 (Q13464 whole entry): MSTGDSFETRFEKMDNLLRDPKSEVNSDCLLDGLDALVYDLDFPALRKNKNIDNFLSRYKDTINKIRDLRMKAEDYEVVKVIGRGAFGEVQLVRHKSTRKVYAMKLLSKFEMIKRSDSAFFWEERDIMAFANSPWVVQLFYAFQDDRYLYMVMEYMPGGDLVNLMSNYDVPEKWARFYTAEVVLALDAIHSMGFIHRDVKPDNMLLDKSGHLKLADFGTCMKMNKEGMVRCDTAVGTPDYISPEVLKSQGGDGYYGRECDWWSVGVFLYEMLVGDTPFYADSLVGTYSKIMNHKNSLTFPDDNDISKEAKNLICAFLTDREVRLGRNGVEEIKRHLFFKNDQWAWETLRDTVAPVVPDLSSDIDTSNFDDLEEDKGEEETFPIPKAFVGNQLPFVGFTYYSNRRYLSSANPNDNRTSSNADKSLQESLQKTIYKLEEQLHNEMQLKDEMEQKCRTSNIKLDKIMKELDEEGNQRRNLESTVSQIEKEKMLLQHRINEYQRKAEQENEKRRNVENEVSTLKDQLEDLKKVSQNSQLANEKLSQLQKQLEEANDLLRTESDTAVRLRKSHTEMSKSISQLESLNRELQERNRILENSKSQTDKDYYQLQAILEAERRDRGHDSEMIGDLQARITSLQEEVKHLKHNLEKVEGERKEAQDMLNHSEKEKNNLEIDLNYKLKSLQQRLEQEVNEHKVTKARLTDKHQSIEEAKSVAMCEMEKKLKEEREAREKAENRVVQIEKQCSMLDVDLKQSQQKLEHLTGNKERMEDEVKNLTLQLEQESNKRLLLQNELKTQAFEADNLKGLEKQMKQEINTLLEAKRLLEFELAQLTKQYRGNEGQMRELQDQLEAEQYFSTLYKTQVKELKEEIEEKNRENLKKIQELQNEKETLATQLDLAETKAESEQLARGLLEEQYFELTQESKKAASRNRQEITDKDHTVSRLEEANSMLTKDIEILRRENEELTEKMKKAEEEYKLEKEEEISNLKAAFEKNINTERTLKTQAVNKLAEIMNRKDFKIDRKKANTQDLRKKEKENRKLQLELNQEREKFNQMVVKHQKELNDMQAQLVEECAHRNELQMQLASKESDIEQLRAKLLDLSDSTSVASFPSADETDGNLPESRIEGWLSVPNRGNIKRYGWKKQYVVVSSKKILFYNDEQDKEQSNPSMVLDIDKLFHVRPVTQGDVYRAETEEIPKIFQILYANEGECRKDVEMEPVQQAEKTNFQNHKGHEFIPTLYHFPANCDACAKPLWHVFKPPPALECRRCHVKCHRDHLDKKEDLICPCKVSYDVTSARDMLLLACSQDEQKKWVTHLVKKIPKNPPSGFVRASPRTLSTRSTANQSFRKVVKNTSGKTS
Chain of CK1-gamma1 (Q9HCP0 whole entry): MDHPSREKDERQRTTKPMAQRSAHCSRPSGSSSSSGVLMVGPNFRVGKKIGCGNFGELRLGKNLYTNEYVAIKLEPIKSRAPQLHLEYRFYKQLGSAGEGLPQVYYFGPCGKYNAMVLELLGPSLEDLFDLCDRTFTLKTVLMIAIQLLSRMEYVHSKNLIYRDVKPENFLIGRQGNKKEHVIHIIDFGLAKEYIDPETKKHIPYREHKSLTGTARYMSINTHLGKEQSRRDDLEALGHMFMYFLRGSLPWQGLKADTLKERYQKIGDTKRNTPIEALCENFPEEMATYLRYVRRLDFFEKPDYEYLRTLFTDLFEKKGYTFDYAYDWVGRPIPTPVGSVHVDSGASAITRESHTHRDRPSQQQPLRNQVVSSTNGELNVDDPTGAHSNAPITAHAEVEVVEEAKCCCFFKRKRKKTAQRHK
Chain of p38-gamma (P53778 whole entry): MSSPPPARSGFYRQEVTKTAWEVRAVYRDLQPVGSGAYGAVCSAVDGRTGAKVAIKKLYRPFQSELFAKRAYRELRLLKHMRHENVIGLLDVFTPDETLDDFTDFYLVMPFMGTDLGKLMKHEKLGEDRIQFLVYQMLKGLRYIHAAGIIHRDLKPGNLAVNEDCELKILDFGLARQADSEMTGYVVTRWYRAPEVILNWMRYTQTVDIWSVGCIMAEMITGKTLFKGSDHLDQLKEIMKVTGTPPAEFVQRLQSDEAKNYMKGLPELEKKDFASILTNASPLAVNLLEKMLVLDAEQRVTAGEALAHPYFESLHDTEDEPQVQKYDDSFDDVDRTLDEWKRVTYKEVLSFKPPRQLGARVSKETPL
Chain of p38-beta (Q15759 whole entry): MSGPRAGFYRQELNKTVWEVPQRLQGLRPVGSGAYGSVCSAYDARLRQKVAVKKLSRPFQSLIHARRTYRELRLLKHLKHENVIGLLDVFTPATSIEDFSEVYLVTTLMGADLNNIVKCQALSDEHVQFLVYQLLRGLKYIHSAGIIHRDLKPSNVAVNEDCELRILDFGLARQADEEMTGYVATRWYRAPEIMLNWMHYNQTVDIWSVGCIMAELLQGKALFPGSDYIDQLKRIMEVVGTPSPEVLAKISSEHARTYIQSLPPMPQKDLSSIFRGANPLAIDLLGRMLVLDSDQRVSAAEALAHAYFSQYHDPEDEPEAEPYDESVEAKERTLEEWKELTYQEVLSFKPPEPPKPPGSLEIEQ
Chain of SRPK2 (P78362 whole entry): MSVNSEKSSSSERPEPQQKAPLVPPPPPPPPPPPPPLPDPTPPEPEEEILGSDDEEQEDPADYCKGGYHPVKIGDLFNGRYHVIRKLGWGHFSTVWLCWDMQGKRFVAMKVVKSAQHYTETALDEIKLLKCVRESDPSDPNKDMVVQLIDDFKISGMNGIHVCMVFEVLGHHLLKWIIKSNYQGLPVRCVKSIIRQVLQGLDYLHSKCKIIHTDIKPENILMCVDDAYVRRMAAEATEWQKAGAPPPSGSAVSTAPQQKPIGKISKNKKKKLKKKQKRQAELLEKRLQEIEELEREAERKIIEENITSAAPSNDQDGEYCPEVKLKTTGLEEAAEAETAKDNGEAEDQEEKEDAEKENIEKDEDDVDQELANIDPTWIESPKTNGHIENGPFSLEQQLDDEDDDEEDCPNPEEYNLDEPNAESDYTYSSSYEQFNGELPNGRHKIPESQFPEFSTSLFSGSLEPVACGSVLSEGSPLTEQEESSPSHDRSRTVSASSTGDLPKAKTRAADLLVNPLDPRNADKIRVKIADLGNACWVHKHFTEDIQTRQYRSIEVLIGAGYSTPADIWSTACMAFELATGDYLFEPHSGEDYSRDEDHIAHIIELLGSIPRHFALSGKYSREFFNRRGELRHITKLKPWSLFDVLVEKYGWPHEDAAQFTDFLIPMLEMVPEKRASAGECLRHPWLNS
Chain of SRC (P12931 whole entry): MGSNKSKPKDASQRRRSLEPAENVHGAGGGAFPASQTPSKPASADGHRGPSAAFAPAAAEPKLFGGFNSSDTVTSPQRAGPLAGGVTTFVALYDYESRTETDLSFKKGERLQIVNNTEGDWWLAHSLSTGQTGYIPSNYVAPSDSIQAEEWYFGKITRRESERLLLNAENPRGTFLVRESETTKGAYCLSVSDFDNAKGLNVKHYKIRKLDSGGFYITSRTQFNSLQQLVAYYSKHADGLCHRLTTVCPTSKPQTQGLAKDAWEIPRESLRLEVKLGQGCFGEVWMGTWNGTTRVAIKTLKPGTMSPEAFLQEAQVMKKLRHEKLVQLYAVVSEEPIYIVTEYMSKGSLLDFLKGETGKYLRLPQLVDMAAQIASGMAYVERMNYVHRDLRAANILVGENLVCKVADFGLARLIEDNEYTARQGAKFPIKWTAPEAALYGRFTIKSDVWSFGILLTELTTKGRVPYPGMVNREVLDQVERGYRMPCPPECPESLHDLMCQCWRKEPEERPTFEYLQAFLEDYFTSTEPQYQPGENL
Chain of JAK3 (P52333 whole entry): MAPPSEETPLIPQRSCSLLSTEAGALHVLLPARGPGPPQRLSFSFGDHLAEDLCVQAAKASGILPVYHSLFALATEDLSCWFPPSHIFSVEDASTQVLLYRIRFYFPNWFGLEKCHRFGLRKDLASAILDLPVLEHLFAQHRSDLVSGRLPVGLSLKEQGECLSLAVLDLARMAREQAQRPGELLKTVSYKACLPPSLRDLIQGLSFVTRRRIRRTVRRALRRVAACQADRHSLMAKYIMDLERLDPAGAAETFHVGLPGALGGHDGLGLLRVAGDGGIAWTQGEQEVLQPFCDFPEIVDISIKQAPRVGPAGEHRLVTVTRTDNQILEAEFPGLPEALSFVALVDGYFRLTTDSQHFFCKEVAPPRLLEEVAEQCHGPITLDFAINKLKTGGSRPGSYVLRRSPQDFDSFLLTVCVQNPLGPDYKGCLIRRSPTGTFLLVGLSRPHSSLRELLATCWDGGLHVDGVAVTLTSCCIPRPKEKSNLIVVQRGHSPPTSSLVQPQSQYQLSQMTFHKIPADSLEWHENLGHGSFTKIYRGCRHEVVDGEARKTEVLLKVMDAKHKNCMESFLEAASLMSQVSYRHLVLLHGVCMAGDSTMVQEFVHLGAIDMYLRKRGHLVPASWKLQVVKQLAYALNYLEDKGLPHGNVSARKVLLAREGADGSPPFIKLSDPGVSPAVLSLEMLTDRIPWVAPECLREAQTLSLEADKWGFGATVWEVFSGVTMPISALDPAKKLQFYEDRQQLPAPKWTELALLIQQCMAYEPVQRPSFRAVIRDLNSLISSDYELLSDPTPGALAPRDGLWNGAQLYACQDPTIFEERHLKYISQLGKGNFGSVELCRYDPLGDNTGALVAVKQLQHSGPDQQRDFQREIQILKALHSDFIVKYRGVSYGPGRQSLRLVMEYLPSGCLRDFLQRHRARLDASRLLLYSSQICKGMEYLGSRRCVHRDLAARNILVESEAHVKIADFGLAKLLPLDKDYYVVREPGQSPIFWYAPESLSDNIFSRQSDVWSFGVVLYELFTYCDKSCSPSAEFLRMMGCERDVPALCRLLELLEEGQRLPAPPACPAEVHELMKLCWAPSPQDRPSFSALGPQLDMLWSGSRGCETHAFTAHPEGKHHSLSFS

With COc1ccc2c3ccnc(Cl)c3n(CC#N)c2c1 [AnnH75] the “residual activity at 1 µM, Mean” value (PRKD2) was 90 % of control, the “residual activity at 1 µM, Mean” value (JNK3) was 82 % of control and the “residual activity at 1 µM, Mean” value (MEKK3) was 97 % of control. The “residual activity at 1 µM, Mean” value (PRK2) was 88 % of control, the “residual activity at 1 µM, Mean” value (MATK) was 102 % of control and the “residual activity at 1 µM, Mean” value (RPS6KA3) was 101 % of control. For the same molecule, the “residual activity at 1 µM, Mean” value (PDGFR-alpha) was 102 % of control, the “residual activity at 1 µM, Mean” value (CAMK4) was 111 % of control and the “residual activity at 1 µM, Mean” value (TRK-B) was 72 % of control. The “residual activity at 1 µM, Mean” value (p38-gamma) was 86 % of control, the “residual activity at 1 µM, Mean” value (p38-beta) was 105 % of control and the “residual activity at 1 µM, Mean” value (INS-R) was 92 % of control. For the same molecule, the “residual activity at 1 µM, Mean” value (SRPK2) was 106 % of control, the “residual activity at 1 µM, Mean” value (NEK1) was 101 % of control and the “residual activity at 1 µM, Mean” value (CDC42BPB) was 94 % of control. For the same molecule, the “residual activity at 1 µM, Mean” value (MAP4K2) was 93 % of control, the “residual activity at 1 µM, Mean” value (KIT) was 82 % of control and the “residual activity at 1 µM, Mean” value (LRRK2) was 83 % of control. The “residual activity at 1 µM, Mean” value (MUSK) was 101 % of control, the “residual activity at 1 µM, Mean” value (EPHA5) was 84 % of control and the “residual activity at 1 µM, Mean” value (CDC42BPA) was 76 % of control. The “residual activity at 1 µM, Mean” value (JAK3) was 101 % of control, the “residual activity at 1 µM, Mean” value (p38-delta) was 89 % of control and the “residual activity at 1 µM, Mean” value (NLK) was 92 % of control. The “residual activity at 1 µM, Mean” value (NEK2) was 90 % of control, the “residual activity at 1 µM, Mean” value (TEC) was 93 % of control and the “residual activity at 1 µM, Mean” value (IRAK4) was 92 % of control. The “residual activity at 1 µM, Mean” value (AKT2) was 106 % of control, the “residual activity at 1 µM, Mean” value (CK1-gamma1) was 92 % of control and the “residual activity at 1 µM, Mean” value (DMPK) was 101 % of control. For the same molecule, the “residual activity at 1 µM, Mean” value (ROCK1) was 73 % of control, the “residual activity at 1 µM, Mean” value (SRC) was 95 % of control and the “residual activity at 1 µM, Mean” value (CDK3/CycE1) was 94 % of control. The “residual activity at 1 µM, Mean” value (MERTK) was 91 % of control, the “residual activity at 1 µM, Mean” value (LYN) was 77 % of control and the “residual activity at 1 µM, Mean” value (JAK1) was 93 % of control. For the same molecule, the “residual activity at 1 µM, Mean” value (LTK) was 99 % of control, the “residual activity at 1 µM, Mean” value (WEE1) was 100 % of control and the “residual activity at 1 µM, Mean” value (TIE2) was 84 % of control. The “residual activity at 1 µM, Mean” value (EPHA4) was 99 % of control.
